Among the data in patent publication US12435061B2 (priority 2020, dated 2025) are IC50 values, retold here.

In this assay the target is hTRPV3 (Homo sapiens (Human), UniProt Q8NET8). The assay is described as follows: Whole-cell patch clamp, hTRPV3 Phase 1 / Phase 2 currents. The assay is classed as cell-based. Put shortly:
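Currents are activated by 20 μM 2-APB or by perfusate at 28 °C or warmer, in Ringer's solution, and quantified at ±80 mV.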
On the technique in general: The patch-clamp technique gives a direct electrical read-out from membranes.

Where [1] appears, read: Phase 1 current, inward, whole-cell patch clamp, read-out: hTRPV3 Patch P1 Inwd.
Where [2] appears, read: Phase 1 current, read-out: hTRPV3 (nM) (Phase 1).

Like-named read-outs stand apart in the source and are kept apart here.

Sequence of hTRPV3 (Q8NET8 whole entry): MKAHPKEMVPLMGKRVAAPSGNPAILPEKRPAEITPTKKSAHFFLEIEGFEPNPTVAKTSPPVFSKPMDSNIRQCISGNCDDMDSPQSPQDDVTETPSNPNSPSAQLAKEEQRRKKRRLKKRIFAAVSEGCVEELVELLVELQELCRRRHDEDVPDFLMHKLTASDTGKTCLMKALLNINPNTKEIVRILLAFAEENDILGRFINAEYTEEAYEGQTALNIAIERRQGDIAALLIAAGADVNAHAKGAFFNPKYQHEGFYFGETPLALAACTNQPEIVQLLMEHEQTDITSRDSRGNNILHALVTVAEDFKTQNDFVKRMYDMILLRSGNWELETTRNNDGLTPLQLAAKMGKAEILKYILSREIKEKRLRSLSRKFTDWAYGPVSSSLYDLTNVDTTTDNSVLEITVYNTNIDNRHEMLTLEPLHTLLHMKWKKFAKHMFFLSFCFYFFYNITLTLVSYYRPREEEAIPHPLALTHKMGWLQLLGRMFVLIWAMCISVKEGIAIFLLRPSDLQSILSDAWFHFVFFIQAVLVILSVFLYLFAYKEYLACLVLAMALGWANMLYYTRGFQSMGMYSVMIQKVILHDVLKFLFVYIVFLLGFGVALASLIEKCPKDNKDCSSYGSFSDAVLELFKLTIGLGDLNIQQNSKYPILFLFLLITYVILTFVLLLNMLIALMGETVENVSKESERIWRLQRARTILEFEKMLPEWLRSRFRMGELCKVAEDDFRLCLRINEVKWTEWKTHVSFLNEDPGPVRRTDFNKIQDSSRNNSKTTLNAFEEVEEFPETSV

As to `O=C(c1ccc(N2CC[C@H](Oc3ncccc3F)C2)c(CO)c1)c1ccccc1Cl` [Compound 1-265, (S)-(2-chlorophenyl)(4-(3-(3-fluoropyridin-2-yloxy)pyrrolidin-1-yl)-3-(hydroxymethyl)phenyl)methanone], the IC50 is over 1000 nM under setting [1] and 1780 nM under setting [2].
The like results for `CCCc1ccccc1Oc1ccc(N2CC[C@H](Oc3ncccc3Cl)C2)c(CO)c1` [Compound 1-266, (S)-(2-(3-(3-chloropyridin-2-yloxy)pyrrolidin-1-yl)-5-(2-propylphenoxy)phenyl)methanol] were, in that order, under 10 nM and 2.65 nM.
For the compound `CC(C)(C)OC(=O)NCc1ccc(-c2ccc(N3CC[C@H](Oc4ccc(C(F)(F)F)cn4)C3)c(CO)c2)cc1` [Compound 1-269, (S)-tert-butyl (3′-(hydroxymethyl)-4′-(3-(5-(trifluoromethyl)pyridin-2-yloxy)pyrrolidin-1-yl)biphenyl-4-yl)methylcarbamate], the IC50 was over 1000 nM under setting [1] and over 3200 nM under setting [2].
For the compound `CC(C)c1ccccc1Oc1ccc(N2CC[C@H](Oc3ncccc3Cl)C2)c(CO)c1` [Compound 1-271, (S)-(2-(3-(3-chloropyridin-2-yloxy)pyrrolidin-1-yl)-5-(2-isopropylphenoxy)phenyl)methanol], the IC50 under setting [1] was under 10 nM and the IC50 under setting [2] was 2.01 nM.
With `OCc1cc(C2CCOCC2)ccc1N1CC[C@H](Oc2ccc(C(F)(F)F)cn2)C1` [Compound 1-276, (S)-(5-(tetrahydro-2H-pyran-4-yl)-2-(3-(5-(trifluoromethyl)pyridin-2-yloxy)pyrrolidin-1-yl)phenyl)methanol], the IC50 runs as follows: under setting [1], over 1000 nM; under setting [2], over 3200 nM.
For `OCc1cc(C(O)c2ccc(F)cc2)ccc1N1CC[C@H](Oc2ncccc2Cl)C1` (stereo partly drawn) [Compound 1-278, (4-((S)-3-(3-chloropyridin-2-yloxy)pyrrolidin-1-yl)-3-(hydroxymethyl)phenyl)(4-fluorophenyl)methanol], the IC50 was 100 to 1000 nM under setting [1] and 254 nM under setting [2].
Consider `OCc1cc(C2=CCOCC2)ccc1N1CC[C@H](Oc2ccc(C(F)(F)F)cn2)C1` [Compound 1-280, (S)-(5-(3,6-dihydro-2H-pyran-4-yl)-2-(3-(5-(trifluoromethyl)pyridin-2-yloxy)pyrrolidin-1-yl)phenyl)methanol], for which the IC50 runs as follows: under setting [1], over 1000 nM; under setting [2], about 3600 nM.
For `Cc1cccc(C(O)c2ccc(N3CC[C@H](Oc4ncccc4Cl)C3)c(CO)c2)c1` (stereo partly drawn) [Compound 1-281, (4-((S)-3-(3-chloropyridin-2-yloxy)pyrrolidin-1-yl)-3-(hydroxymethyl)phenyl)(m-tolyl)methanol], the IC50 runs as follows: under setting [1], over 1000 nM; under setting [2], 1100 nM.
The like results for `OCc1cc(Oc2ccc(Cl)cc2)ccc1N1CC[C@H](Oc2ccccn2)C1` [Compound 1-283] were, in that order, 100 to 1000 nM and 283 nM.
Take `OCc1cc(Br)ccc1N1C[C@@H](O)[C@H](Oc2ccc(C(F)(F)F)cn2)C1` [Compound 1-284]: the IC50 was over 1000 nM under setting [1] and 1630 nM under setting [2].
Consider `OCc1cc(Oc2ccc(Cl)cc2)ccc1N1C[C@@H](O)[C@H](Oc2ccc(C(F)(F)F)cn2)C1` [Compound 1-285], for which the IC50 is over 1000 nM under setting [1]; over 3200 nM under setting [2]; over 1000 nM (Phase 2 current, inward, whole-cell patch clamp, read-out: hTRPV3 Patch P2 Inwd); about 4900 nM (Phase 2 current, read-out: hTRPV3 (nM) (Phase 2)).
As for `COCc1ccc(C(=O)c2ccc(N3CC[C@H](Oc4ncccc4Cl)C3)c(CO)c2)cc1` [Compound 1-286], the IC50 reads like this: under setting [1], 100 to 1000 nM; under setting [2], 607 nM.
As for `Cc1ccc(C(O)c2ccc(N3CC[C@H](Oc4ncccc4Cl)C3)c(CO)c2)cc1` (stereo partly drawn) [Compound 1-287, (4-((S)-3-(3-chloropyridin-2-yloxy)pyrrolidin-1-yl)-3-(hydroxymethyl)phenyl)(p-tolyl)methanol], the IC50 reads like this: under setting [1], 100 to 1000 nM; under setting [2], 674 nM.
